The values below come from ChEMBL document CHEMBL1909046, “DrugMatrix in vitro pharmacology data”.

Assay [1] is described as follows: DRUGMATRIX: Sodium/nucleoside co-transporter radioligand binding (ligand: nitrobenzylthioinosine). The class given is cell membranes, Cavia porcellus, Dunkin-Hartley, Cerebral cortex, Membrane. Particulars: Not Active = under 50% inhibition at 10 µM.
For another assay, the target named is Carbonic anhydrase 2 (Homo sapiens, UniProt P00918). The experiment in a line: DRUGMATRIX: Carbonic Anhydrase II enzyme inhibition (substrate: 4-Nitrophenyl acetate (4-NPA)). Format: tissue-based, Erythrocyte. Particulars: erythrocyte; Not Active = under 50% inhibition at 10 µM.
The next assay deals with Insulin receptor (Rattus norvegicus, UniProt P15127). Format: cell membranes, Wistar, Liver, Membrane.
Chain of Insulin receptor (P15127 27-759 limits assumed): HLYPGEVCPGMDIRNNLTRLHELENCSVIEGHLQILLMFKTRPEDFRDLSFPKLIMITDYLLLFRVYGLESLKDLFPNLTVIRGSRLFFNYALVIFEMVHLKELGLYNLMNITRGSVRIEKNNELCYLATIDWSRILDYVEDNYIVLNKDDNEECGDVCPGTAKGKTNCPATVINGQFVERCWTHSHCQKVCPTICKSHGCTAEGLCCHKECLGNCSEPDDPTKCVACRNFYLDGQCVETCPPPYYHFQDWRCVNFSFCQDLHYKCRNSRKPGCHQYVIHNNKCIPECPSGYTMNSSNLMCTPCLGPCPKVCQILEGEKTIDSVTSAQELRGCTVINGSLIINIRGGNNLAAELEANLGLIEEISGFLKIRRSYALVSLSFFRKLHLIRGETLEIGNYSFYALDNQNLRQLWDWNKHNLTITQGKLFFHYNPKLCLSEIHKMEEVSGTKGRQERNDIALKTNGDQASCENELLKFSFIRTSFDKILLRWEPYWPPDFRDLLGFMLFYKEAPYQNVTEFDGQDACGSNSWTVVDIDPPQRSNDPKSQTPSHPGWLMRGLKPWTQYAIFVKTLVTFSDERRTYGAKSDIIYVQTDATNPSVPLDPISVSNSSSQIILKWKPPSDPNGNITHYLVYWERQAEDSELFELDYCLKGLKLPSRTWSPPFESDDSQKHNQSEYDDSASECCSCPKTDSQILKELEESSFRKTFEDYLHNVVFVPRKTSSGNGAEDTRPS
Chain of Insulin receptor (P15127 764-1383 limits assumed): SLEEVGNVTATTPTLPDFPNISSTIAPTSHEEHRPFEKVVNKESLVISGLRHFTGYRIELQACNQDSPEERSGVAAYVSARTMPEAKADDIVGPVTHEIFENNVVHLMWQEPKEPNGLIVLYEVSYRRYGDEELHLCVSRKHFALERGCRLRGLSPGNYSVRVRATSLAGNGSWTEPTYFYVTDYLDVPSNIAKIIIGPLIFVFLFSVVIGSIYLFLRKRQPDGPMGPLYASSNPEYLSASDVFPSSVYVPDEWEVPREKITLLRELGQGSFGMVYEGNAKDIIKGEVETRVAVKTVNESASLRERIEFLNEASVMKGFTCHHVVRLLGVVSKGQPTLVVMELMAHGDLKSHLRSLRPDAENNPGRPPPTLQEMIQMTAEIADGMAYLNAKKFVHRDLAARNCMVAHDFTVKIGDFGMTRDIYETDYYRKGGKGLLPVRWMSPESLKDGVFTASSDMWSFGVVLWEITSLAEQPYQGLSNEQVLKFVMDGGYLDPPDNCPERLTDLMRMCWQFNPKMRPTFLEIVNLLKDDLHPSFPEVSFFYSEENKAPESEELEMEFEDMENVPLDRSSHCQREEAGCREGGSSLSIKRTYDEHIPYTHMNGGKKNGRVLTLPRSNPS
The target in assay [2] is T1, Polyunsaturated fatty acid lipoxygenase ALOX15 (Oryctolagus cuniculus, UniProt P12530).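 Also: inhibition of 15-lipoxygenase enzyme activity measured with linoleic acid as the substrate; in other assays of this panel Not Active means under 50% inhibition at 10 µM.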
T1 sequence (P12530 whole entry): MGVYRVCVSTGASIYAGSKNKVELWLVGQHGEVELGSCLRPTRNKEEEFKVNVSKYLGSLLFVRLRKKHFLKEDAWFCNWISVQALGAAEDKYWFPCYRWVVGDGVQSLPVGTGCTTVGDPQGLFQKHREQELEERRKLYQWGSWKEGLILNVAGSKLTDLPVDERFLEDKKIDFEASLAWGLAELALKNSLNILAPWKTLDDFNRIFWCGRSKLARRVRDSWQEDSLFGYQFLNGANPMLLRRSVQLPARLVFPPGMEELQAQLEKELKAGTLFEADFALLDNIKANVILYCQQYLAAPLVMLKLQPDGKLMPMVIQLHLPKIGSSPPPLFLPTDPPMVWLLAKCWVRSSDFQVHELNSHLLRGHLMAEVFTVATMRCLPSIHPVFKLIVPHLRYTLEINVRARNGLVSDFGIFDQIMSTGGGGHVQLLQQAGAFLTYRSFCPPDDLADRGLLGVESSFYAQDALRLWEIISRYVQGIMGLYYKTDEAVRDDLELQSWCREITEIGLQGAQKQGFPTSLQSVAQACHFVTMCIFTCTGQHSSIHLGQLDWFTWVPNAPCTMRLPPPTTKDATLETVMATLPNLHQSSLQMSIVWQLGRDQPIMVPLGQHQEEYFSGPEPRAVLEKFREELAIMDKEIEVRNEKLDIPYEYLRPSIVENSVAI
Description: biochemical. The class given is tissue-based, Reticulocytes.

Assay [3] deals with Delta-type opioid receptor (Homo sapiens, UniProt P41143). Format: cell membranes, HEK293, Membrane. The following applies: hek293.
Chain of Delta-type opioid receptor (P41143 whole entry): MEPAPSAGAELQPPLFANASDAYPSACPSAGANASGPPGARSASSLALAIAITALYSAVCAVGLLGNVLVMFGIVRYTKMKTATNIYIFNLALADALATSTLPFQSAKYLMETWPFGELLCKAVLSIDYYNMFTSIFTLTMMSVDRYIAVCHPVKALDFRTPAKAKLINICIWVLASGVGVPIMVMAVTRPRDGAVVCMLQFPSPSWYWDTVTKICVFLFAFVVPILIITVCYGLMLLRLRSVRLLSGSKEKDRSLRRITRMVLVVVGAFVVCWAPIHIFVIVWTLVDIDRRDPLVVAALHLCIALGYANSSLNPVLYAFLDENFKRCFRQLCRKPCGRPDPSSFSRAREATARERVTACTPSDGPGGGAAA
The next assay addresses T2, Interstitial collagenase (Homo sapiens, UniProt P03956).
T2 sequence (P03956 whole entry): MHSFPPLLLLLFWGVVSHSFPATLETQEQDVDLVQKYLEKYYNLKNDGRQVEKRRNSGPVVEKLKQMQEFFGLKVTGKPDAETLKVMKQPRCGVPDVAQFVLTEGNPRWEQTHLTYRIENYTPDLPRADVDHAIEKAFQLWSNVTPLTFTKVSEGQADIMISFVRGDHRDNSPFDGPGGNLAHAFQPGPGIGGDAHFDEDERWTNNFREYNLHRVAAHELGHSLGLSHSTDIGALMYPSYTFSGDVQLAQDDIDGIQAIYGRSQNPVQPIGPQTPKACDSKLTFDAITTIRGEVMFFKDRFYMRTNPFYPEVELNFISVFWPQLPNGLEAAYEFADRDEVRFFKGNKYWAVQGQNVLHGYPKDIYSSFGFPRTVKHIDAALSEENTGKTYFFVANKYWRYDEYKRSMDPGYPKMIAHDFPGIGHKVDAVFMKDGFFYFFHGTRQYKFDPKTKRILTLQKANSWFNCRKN
The experiment in a line: biochemical. Format: tissue-based, Rheumatoid synovial fibroblasts.

Assay [4] addresses Mitogen-activated protein kinase 1 (Homo sapiens, UniProt P28482). Description: DRUGMATRIX: Protein Serine/Threonine Kinase, ERK2 enzyme inhibition (substrate: Myelin Basic Protein). Also noted: species or system Escherichia coli. The following applies: Not Active = under 50% inhibition at 10 µM.

Chain of Mitogen-activated protein kinase 1 (P28482 whole entry): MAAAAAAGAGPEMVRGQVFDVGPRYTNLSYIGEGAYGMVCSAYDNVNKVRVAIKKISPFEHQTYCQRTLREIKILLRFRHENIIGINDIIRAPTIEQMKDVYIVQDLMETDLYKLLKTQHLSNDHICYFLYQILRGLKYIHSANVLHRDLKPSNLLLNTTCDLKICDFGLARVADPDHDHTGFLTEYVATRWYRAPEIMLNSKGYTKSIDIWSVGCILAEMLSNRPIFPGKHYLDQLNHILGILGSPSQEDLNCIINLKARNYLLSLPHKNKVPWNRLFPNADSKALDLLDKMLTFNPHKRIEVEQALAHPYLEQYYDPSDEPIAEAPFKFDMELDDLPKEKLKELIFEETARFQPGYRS

By IC50 is commonly meant the point on the concentration scale where inhibition reaches its midpoint. Turning to `Clc1cc(Cl)c(OCC#CI)cc1Cl` [HALOPROGIN], the 50% inhibitory concentration (IC50) entry (in assay [1]; against Carbonic anhydrase 2; against Insulin receptor; in assay [2] (reticulocytes); in assay [3]; at Interstitial collagenase) was “Not Active” in each case. Besides, the IC50 entry in assay [4] was “Not Active”. In addition, the Ki entry in assay [1] is reported as “Not Active”.

Take `COC(=O)C[C@](O)(CCC(C)(C)O)C(=O)O[C@@H]1C(OC)=C[C@]23CCCN2CCc2cc4c(cc2[C@H]13)OCO4` [HARRINGTONINE]: the IC50 entry (in assay [1]; against Carbonic anhydrase 2; against Insulin receptor; in assay [2] (reticulocytes); in assay [3]; on Interstitial collagenase) was “Not Active” in each case. Further, the IC50 entry in assay [4] was “Not Active”. Besides, the Ki entry in assay [1] was “Not Active”.

`CCN(CCO)CCCC(C)Nc1ccnc2cc(Cl)ccc12` (stereo not given) [HYDROXYCHLOROQUINE]: the concentration for half-maximal inhibition (IC50) entry (in assay [1]; against Carbonic anhydrase 2; against Insulin receptor; in assay [2] (reticulocytes); in assay [3]; on Interstitial collagenase) was “Not Active” each time. In addition, the IC50 entry in assay [4] is listed as “Not Active”. The Ki result in assay [1] is on record as “Not Active”.

On to `CC(=O)[C@]1(O)Cc2c(O)c3c(c(O)c2[C@@H](O[C@H]2C[C@H](N)[C@H](O)[C@H](C)O2)C1)C(=O)c1ccccc1C3=O` [IDARUBICIN], for which the IC50 result (in assay [1]; at Carbonic anhydrase 2; at Insulin receptor; in assay [2] (reticulocytes); in assay [3]; against Interstitial collagenase) was “Not Active” each time. For the same compound, the IC50 result in assay [4] is “Not Active”. Besides, the Ki entry in assay [1] is listed as “Not Active”.

Consider `CC(C)Cn1cnc2c(N)nc3ccccc3c21` [IMIQUIMOD], for which the IC50 entry (in assay [1]; at Carbonic anhydrase 2; at Insulin receptor; in assay [2] (reticulocytes); in assay [3]; at Interstitial collagenase) was “Not Active” each time. Moreover, the IC50 result in assay [4] was “Not Active”. Moreover, the Ki entry in assay [1] is “Not Active”.

With `O=C(NCCN1CCOCC1)c1ccc(Cl)cc1` [MOCLOBEMIDE], the IC50 entry (in assay [1]; at Carbonic anhydrase 2; against Insulin receptor; in assay [2] (reticulocytes); in assay [3]; at Interstitial collagenase) was “Not Active” throughout. The 50% inhibitory concentration (IC50) result in assay [4] is given as “Not Active”. In assay [1], the Ki result is given as “Not Active”.

Turning to `Cc1ccnc2c1NC(=O)c1cccnc1N2C1CC1` [NEVIRAPINE], the IC50 result (in assay [1]; at Carbonic anhydrase 2; against Insulin receptor; in assay [2] (reticulocytes); in assay [3]; against Interstitial collagenase) was “Not Active” in each case. The IC50 result in assay [4] was “Not Active”. In addition, in assay [1], the Ki entry was “Not Active”.

Take `O=C1CN(/N=C/c2ccc([N+](=O)[O-])o2)C(=O)N1` [NITROFURANTOIN]: the concentration for half-maximal inhibition (IC50) entry (in assay [1]; against Carbonic anhydrase 2; on Insulin receptor; in assay [2] (reticulocytes); in assay [3]; against Interstitial collagenase) was “Not Active” each time. In addition, the IC50 result in assay [4] is “Not Active”. For the same compound, the Ki result in assay [1] is recorded as “Not Active”.

`C#C[C@]1(O)CC[C@H]2[C@@H]3CCC4=CC(=O)CC[C@@H]4[C@H]3CC[C@@]21C` [NORETHINDRONE]: the IC50 result (in assay [1]; against Carbonic anhydrase 2; against Insulin receptor; in assay [2] (reticulocytes); in assay [3]; against Interstitial collagenase) was “Not Active” throughout. In addition, the IC50 result in assay [4] was “Not Active”. The Ki entry in assay [1] was “Not Active”.

In the case of `O=C(O)CCc1nc(-c2ccccc2)c(-c2ccccc2)o1` [OXAPROZIN], the IC50 entry (in assay [1]; against Carbonic anhydrase 2; against Insulin receptor; in assay [2] (reticulocytes); in assay [3]; on Interstitial collagenase) was “Not Active” throughout. For the same compound, the IC50 result in assay [4] is recorded as “Not Active”. In addition, the Ki entry in assay [1] is reported as “Not Active”.

On to `Cc1cc(C(C)(C)C)c(O)c(C)c1CC1=NCCN1` [OXYMETAZOLINE], for which the IC50 result (in assay [1]; against Carbonic anhydrase 2; against Insulin receptor; in assay [2] (reticulocytes); in assay [3]; against Interstitial collagenase) was “Not Active” throughout. Moreover, the IC50 entry in assay [4] is “Not Active”. Besides, the Ki result in assay [1] is “Not Active”.

Regarding `NC(=O)NC(=O)Cc1ccccc1` [PHENACEMIDE], the IC50 entry (in assay [1]; against Carbonic anhydrase 2; at Insulin receptor; in assay [2] (reticulocytes); in assay [3]; at Interstitial collagenase) was “Not Active” throughout. The IC50 entry in assay [4] is given as “Not Active”. Also, the Ki entry in assay [1] is “Not Active”.

As to `O=C1c2ccccc2C(=O)C1c1ccccc1` [PHENINDIONE], the IC50 entry (in assay [1]; at Carbonic anhydrase 2; at Insulin receptor; in assay [2] (reticulocytes); in assay [3]; against Interstitial collagenase) was “Not Active” each time. Moreover, the IC50 entry in assay [4] is reported as “Not Active”. For the same compound, in assay [1], the Ki entry was “Not Active”.

As for `CCC1(c2ccccc2)C(=O)NC(=O)NC1=O` [PHENOBARBITAL], the IC50 entry (in assay [1]; at Carbonic anhydrase 2; at Insulin receptor; in assay [2] (reticulocytes); in assay [3]; against Interstitial collagenase) was “Not Active” in each case. Also, the IC50 entry in assay [4] is “Not Active”. In addition, the Ki entry in assay [1] is “Not Active”.

With `Oc1ccccc1` [PHENOL], the IC50 entry (in assay [1]; at Carbonic anhydrase 2; on Insulin receptor; in assay [2] (reticulocytes); in assay [3]; against Interstitial collagenase) was “Not Active” throughout. Besides, the IC50 result in assay [4] is listed as “Not Active”. The Ki result in assay [1] is “Not Active”.

On to `c1ccc2c(c1)Nc1ccccc1S2` [PHENOTHIAZINE], for which the IC50 result in assay [1] is “Not Active”; at Carbonic anhydrase 2, “Not Active”; at Insulin receptor it was “Not Active”; in assay [2] (read-out: IC50), 4.64 µM; in assay [3], “Not Active”; against Interstitial collagenase, “Not Active”. The IC50 entry in assay [4] was “Not Active”. Further, the Ki entry in assay [1] was “Not Active”.

For the compound `CCN1CCN(C(=O)N[C@@H](C(=O)N[C@@H]2C(=O)N3[C@@H]2SC(C)(C)[C@@H]3C(=O)O)c2ccccc2)C(=O)C1=O` [PIPERACILLIN], the IC50 entry (in assay [1]; against Carbonic anhydrase 2; on Insulin receptor; in assay [2] (reticulocytes); in assay [3]; on Interstitial collagenase) was “Not Active” each time. The concentration for half-maximal inhibition (IC50) result in assay [4] is “Not Active”. Moreover, in assay [1], the Ki entry is on record as “Not Active”.

As for `COc1cc([C@@H]2c3cc4c(cc3[C@H](O)[C@H]3COC(=O)[C@H]23)OCO4)cc(OC)c1OC` [PODOFILOX], the concentration for half-maximal inhibition (IC50) result (in assay [1]; against Carbonic anhydrase 2; against Insulin receptor; in assay [2] (reticulocytes); in assay [3]; on Interstitial collagenase) was “Not Active” in each case. Also, the IC50 result in assay [4] was “Not Active”. For the same compound, the Ki result in assay [1] is given as “Not Active”.

With `COc1cc(NC(C)CCCN)c2ncccc2c1` (stereo not given) [PRIMAQUINE], the IC50 entry (in assay [1]; on Carbonic anhydrase 2; on Insulin receptor; in assay [2] (reticulocytes); in assay [3]; on Interstitial collagenase) was “Not Active” in each case. Also, the IC50 result in assay [4] was “Not Active”. Also, the Ki entry in assay [1] is “Not Active”.

For `CC(CN1c2ccccc2Sc2ccccc21)N(C)C` (stereo not given) [PROMETHAZINE], the IC50 result (in assay [1]; at Carbonic anhydrase 2; against Insulin receptor; in assay [2] (reticulocytes); in assay [3]; against Interstitial collagenase) was “Not Active” throughout. Besides, the IC50 result in assay [4] is listed as “Not Active”. The Ki entry in assay [1] is on record as “Not Active”.
